{"source": "patent US20110171138A1", "about": "“SUBSTANTIALLY PURE DEFERASIROX AND PROCESSES FOR THE PREPARATION THEREOF” (ACTAVIS GROUP PTC EHF, priority 2008, published 2011)", "origin": "cited, not measured here", "settings": "in water and in acid medium; the solubility increasing with pH"}
{"molecule": "O=C(O)c1ccc(-n2nc(-c3ccccc3O)nc2-c2ccccc2O)cc1", "note": "[Deferasirox, 4-[3,5-Bis(2-hydroxyphenyl)-1H-1,2,4-triazol-1-yl]benzoic acid]", "values": [{"measurement": "solubility", "result": "practically insoluble"}]}
